Data from ChEMBL document CHEMBL5154644, “Design, Synthesis, and Structure-Activity Relationship Optimization of Pyrazolopyrimidine Amide Inhibitors of Phosphoinositide 3-Kinase γ (PI3Kγ)” (J Med Chem, 2022).
Calls of active or inactive are those of the source. No cut-off for these calls is given here.

Tests used:
Cytochrome P450 3A4 = Cytochrome P450 3A4 (Homo sapiens, UniProt P08684); experiment: Time dependent inhibition of CYP3A4 in human liver microsomes at 40 uM using midazolam as substrate measured after 5 to 20 mins in presence of NADPH by LC/MS/MS analysis; type: ADME, Microsome
Cytochrome P450 3A4, sequence (P08684 whole entry): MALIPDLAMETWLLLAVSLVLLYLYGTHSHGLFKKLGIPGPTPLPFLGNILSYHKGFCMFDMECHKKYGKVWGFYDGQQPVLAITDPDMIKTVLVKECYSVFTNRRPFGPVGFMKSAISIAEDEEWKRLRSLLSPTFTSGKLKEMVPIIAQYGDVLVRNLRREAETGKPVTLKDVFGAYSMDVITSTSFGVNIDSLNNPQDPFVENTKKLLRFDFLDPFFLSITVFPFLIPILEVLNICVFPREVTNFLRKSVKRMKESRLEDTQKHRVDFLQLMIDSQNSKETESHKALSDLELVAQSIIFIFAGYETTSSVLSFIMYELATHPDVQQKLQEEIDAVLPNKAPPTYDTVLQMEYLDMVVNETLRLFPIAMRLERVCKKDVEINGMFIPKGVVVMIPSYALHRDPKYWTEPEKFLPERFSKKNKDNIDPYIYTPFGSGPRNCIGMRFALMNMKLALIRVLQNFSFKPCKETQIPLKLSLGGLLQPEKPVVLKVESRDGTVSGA

Cytochrome P450 1A2 = target: T1, Cytochrome P450 1A2 (Homo sapiens, UniProt P05177); experiment: Time dependent inhibition of CYP1A2 in human liver microsomes at 40 uM using phenacetin as substrate measured after 5 to 20 mins in presence of NADPH by LC/MS/MS analysis; type: ADME, Microsome
T1 sequence (P05177 whole entry): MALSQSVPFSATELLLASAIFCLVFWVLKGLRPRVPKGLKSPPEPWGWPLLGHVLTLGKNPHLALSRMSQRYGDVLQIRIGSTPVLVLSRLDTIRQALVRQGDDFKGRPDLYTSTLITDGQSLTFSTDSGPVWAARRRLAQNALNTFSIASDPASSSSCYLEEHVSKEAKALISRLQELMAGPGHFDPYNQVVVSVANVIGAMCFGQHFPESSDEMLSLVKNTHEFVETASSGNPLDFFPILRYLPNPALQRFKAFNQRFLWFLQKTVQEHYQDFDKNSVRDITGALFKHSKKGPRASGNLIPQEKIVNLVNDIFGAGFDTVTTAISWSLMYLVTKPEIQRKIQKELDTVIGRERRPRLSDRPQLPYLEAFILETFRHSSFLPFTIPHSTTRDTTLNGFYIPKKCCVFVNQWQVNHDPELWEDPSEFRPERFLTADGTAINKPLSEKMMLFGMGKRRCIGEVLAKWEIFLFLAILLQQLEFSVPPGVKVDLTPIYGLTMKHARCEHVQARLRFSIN

[1] = target: T2, Phosphatidylinositol 4,5-bisphosphate 3-kinase catalytic subunit gamma isoform (Homo sapiens, UniProt P48736); experiment: Inhibition of PI3Kgamma (unknown origin) at 10 uM using PIP2 as substrate preincubated for 60 mins followed by substrate addition and measured after 45 mins in presence of ATP by TR-FRET analysis
Target sequence in this assay (P48736 whole entry, canonical isoform): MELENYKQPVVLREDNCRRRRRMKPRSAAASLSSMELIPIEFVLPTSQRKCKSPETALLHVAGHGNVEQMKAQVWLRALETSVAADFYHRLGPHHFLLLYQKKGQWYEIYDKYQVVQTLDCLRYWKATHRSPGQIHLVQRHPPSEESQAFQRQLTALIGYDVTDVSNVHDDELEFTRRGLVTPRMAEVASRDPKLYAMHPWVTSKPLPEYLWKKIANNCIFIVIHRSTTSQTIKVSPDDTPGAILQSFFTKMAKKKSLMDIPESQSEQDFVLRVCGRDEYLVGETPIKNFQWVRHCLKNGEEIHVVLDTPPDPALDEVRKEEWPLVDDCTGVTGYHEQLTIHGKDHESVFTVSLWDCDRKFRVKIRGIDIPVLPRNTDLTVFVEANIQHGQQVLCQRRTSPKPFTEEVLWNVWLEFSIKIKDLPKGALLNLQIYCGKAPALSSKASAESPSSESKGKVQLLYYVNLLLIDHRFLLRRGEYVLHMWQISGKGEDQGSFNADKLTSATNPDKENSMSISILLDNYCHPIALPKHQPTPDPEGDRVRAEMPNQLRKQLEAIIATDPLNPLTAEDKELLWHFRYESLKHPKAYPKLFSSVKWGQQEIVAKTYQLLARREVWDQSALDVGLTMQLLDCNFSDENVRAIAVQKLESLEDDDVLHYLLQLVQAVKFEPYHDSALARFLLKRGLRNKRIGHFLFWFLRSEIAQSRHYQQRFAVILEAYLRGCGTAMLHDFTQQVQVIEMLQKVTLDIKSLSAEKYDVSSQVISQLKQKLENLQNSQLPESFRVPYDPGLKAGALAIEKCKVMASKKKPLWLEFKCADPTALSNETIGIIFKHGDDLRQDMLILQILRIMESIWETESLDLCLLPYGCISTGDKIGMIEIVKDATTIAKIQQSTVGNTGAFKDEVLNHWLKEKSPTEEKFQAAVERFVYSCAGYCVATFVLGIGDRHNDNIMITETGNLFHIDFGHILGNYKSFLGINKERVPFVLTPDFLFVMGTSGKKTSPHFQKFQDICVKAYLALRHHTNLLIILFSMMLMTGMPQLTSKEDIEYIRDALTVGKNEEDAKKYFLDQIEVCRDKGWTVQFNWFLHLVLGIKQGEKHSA

[2] = target: T2, Phosphatidylinositol 4,5-bisphosphate 3-kinase catalytic subunit gamma isoform; experiment: Inhibition of P13Kgamma in LPS and IFNgamma stimulated human M1 macrophage assessed as increase in IL6 expression at 1 uM pretreated for 1 hr followed by LPS and IFNgamma stimulation by qRT-PCR analysis; type: cell-based
Target sequence in this assay (P48736 whole entry, looked up, canonical isoform): as the sequence (P48736 whole entry, canonical isoform) above

Cytochrome P450 2C8 = target: T3, Cytochrome P450 2C8 (Homo sapiens, UniProt P10632); experiment: Time dependent inhibition of CYP2C8 in human liver microsomes at 40 uM measured after 5 to 20 mins in presence of NADPH by LC/MS/MS analysis; type: ADME, Microsome
T3 sequence (P10632 whole entry): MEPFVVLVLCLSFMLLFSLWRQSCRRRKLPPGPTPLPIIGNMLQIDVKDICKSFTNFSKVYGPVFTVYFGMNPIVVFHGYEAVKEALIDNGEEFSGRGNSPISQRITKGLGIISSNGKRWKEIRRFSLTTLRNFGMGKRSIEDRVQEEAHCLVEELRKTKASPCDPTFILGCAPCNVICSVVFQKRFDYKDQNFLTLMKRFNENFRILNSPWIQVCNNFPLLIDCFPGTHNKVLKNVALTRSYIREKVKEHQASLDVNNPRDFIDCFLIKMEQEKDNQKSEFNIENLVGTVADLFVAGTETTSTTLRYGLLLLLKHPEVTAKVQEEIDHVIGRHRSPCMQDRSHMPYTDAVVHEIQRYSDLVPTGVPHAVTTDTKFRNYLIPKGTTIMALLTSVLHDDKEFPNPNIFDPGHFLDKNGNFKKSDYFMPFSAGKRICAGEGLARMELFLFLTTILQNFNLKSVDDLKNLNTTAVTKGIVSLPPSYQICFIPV

[3] = Volume of distribution at steady state in C57BL/6 mouse at 0.5 mg/kg, iv; type: ADME, organism-based; details: in vivo
[4] = Clearance in Beagle dog at 1 mg/kg, iv; type: ADME, organism-based, Canis lupus familiaris; details: in vivo
[5] = Half life in Beagle dog at 1 mg/kg, iv; type: ADME, organism-based, Canis lupus familiaris; details: in vivo
[6] = AUC(0 to infinity) in C57BL/6 mouse at 0.5 mg/kg, iv; type: ADME, organism-based; design: time infinity, dose 0.5 mg/kg, route iv; details: in vivo
[7] = AUC(0 to infinity) in Beagle dog at 1 mg/kg, iv; type: ADME, organism-based, Canis lupus familiaris; design: time infinity, dose 1 mg/kg, route iv; details: in vivo
[8] = Volume of distribution at steady state in Sprague-Dawley rat at 1 mg/kg, iv measured up to 8 hrs by LC-MS/MS analysis; type: ADME, organism-based; details: in vivo
Cytochrome P450 2C19 = Cytochrome P450 2C19 (Homo sapiens, UniProt P33261); experiment: Time dependent inhibition of CYP2C19 in human liver microsomes at 40 uM using (S)-mephenytoin as substrate measured after 5 to 20 mins in presence of NADPH by LC/MS/MS analysis; type: ADME, Microsome
Cytochrome P450 2C19, sequence (P33261 whole entry, canonical isoform): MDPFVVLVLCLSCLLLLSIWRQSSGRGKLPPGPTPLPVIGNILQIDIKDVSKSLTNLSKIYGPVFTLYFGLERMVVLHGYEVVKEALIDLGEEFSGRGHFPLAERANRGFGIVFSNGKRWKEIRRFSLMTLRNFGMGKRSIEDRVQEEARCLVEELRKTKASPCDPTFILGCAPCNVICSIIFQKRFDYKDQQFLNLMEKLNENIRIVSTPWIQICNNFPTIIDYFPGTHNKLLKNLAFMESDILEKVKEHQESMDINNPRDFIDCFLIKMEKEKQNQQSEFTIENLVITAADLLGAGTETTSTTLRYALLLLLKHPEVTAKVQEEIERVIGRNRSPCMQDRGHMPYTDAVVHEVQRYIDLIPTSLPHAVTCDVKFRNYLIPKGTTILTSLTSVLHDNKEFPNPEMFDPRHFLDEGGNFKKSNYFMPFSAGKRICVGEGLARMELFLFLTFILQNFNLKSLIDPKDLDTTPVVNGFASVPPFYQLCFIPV

[9] = target: T2, Phosphatidylinositol 4,5-bisphosphate 3-kinase catalytic subunit gamma isoform; experiment: Inhibition of P13Kgamma in LPS and IFNgamma stimulated human M1 macrophage assessed as increase in TNFA expression at 1 uM pretreated for 1 hr followed by LPS and IFNgamma stimulation by qRT-PCR analysis; type: cell-based
Target sequence in this assay (P48736 whole entry, looked up, canonical isoform): as the sequence (P48736 whole entry, canonical isoform) above

[10] = Hepatic clearance in Sprague-Dawley rat by LC-MS/MS analysis; type: ADME; details: in vivo
[11] = Clearance in Sprague-Dawley rat at 1 mg/kg, iv measured up to 8 hrs by LC-MS/MS analysis; type: ADME, organism-based; details: in vivo
[12] = target: T2, Phosphatidylinositol 4,5-bisphosphate 3-kinase catalytic subunit gamma isoform; experiment: Inhibition of PI3Kgamma (unknown origin) in […] stimulated human THP-1 cells assessed as reduction in Akt phosphorylation level at Ser473 residue preincubated for 60 mins followed by rhMCP-1 stimulation and measured after 2 mins by AlphaLisa assay; type: cell-based
Target sequence in this assay (P48736 whole entry, canonical isoform): as above

Homo sapiens = organism: Homo sapiens; experiment: Selectivity ratio of IC50 for inhibition of PI3Kbeta (unknown origin) to IC50 for inhibition of PI3Kgamma (unknown origin)
[13] = Clearance in cynomolgus monkey at 1 mg/kg, iv; type: ADME, organism-based, Macaca fascicularis; details: in vivo
[14] = target: Voltage-gated inwardly rectifying potassium channel KCNH2 (Homo sapiens, UniProt Q12809); experiment: Inhibition of human ERG by patch clamp assay; type: toxicity
Voltage-gated inwardly rectifying potassium channel KCNH2, sequence (Q12809 whole entry): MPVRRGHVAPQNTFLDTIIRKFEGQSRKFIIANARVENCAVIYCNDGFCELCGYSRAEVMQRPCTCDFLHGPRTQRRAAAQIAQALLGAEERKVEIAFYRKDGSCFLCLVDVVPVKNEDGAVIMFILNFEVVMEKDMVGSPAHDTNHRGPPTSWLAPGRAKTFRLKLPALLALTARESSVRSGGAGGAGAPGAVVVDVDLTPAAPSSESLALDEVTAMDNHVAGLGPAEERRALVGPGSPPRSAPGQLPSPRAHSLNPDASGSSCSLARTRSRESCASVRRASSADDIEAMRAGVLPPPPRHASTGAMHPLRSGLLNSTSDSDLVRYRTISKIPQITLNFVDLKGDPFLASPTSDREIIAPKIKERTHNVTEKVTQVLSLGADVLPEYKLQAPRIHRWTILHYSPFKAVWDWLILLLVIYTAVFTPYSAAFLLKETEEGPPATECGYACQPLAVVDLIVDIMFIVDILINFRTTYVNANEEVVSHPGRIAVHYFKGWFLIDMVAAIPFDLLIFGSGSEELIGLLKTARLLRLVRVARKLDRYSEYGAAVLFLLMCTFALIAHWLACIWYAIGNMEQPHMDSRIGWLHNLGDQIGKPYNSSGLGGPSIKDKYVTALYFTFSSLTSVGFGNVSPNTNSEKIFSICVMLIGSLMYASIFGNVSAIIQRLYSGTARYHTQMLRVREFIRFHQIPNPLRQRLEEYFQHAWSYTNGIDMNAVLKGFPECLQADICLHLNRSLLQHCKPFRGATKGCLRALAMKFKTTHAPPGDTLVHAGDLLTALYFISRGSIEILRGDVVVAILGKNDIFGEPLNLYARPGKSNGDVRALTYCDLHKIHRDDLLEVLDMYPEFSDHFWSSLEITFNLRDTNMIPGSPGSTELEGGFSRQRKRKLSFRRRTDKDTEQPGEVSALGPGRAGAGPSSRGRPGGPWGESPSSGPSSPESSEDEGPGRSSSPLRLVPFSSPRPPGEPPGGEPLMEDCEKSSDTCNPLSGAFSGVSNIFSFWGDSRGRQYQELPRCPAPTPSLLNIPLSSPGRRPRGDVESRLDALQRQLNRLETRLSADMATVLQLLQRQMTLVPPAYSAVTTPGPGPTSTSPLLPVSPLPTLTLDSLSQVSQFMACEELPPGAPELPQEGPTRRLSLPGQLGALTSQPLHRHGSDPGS

Cytochrome P450 2D6 = Cytochrome P450 2D6 (Homo sapiens, UniProt P10635); experiment: Time dependent inhibition of CYP2D6 in human liver microsomes at 40 uM using dextromethorphan as substrate measured after 5 to 20 mins in presence of NADPH by LC/MS/MS analysis; type: ADME, Microsome
Cytochrome P450 2D6, sequence (P10635 whole entry): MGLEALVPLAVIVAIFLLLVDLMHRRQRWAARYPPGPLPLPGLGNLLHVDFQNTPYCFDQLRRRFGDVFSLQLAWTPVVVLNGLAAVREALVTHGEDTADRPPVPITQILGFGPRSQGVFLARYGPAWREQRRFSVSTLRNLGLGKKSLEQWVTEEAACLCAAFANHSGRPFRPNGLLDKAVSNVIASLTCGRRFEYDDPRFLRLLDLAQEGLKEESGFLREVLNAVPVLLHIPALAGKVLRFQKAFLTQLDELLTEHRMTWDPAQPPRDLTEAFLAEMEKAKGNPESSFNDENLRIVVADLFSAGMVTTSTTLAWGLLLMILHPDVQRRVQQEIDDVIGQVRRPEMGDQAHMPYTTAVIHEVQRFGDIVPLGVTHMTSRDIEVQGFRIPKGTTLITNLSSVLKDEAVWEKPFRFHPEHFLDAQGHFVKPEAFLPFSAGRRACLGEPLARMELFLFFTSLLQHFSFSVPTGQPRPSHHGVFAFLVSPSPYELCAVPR

[15] = Apparent permeability of the compound across apical to basolateral side in human Caco-2 cells; type: toxicity, cell-based; details: in vivo, 100 mg/kg, 168 h, time 7 day
[16] = MRT (infinity) in cynomolgus monkey at 1 mg/kg, iv; type: ADME, organism-based, Macaca fascicularis; details: in vivo
CYP3A4 = CYP3A4 (Homo sapiens, UniProt P08684); experiment: in vitro; details: human liver microsomes, probe midazolam
CYP3A4, sequence (P08684 whole entry): as the sequence (P08684 whole entry) above
Description: Time dependent inhibition of CYP3A4 in human liver microsomes at 10 uM using midazolam as substrate preincubated for 30 mins in presence of NADPH by LC/MS/MS analysis relative to control

[17] = Plasma protein binding in Beagle dog at 1 mg/kg, iv; type: ADME, organism-based, Canis lupus familiaris; details: read-out: PPB (converted)
[18] = Metabolic stability in rat hepatocyte assessed as intrinsic clearance per 10^8 cells at 0.5 uM by LC-MS/MS analysis; type: ADME, cell-based; details: hepatocytes

SMILES | inhibition [2] | Vdss [3] | clearance [4] | half-life [5] | AUC(0-inf) [6] | AUC(0-inf) [7] | Vdss [8] | inhibition [9] | CLH [10] | clearance [11] | IC50 [12] | Ratio IC50 (Homo sapiens) | clearance [13] | MRT inf [16] | inhibition at 30 min, 10 µM (CYP3A4) | fraction unbound [17] | hepatocyte intrinsic clearance [18] | further results
C[C@@H](C1CC1)N1Cc2cc(-c3ccn4nc(N)c(C(=O)N[C@H]5CC[C@@](C)(O)CC5)c4n3)cc(OC(F)F)c2C1=O | Active | 1.66 L/kg | 9.67 mL/min/kg | 4.85 h | 565 ng·h/mL | 1800 ng·h/mL | 3.03 L/kg | Active | 25 mL/min/kg | 27.5 mL/min/kg | 0.034 µM | 3680 | 18 mL/min/kg | 3.41 h | 10% | 0.034 | 2.62 µL/min | IC50 (Cytochrome P450 3A4): > 20 µM; IC50 (Cytochrome P450 1A2): > 20 µM; Ki [1]: 0.0007 µM; IC50 (Cytochrome P450 2C8): > 20 µM; IC50 (Cytochrome P450 2C19): > 20 µM; IC50 [14]: > 10 µM; IC50 (Cytochrome P450 2D6): > 20 µM; Activity [15]: Non-Toxic
C[C@@H](C1CC1)N1Cc2cc(-c3ccn4nc(N)c(C(=O)N[C@H]5CC[C@@](C)(O)CC5)c4n3)cc(OC(F)(F)F)c2C1=O | Active | 2.09 L/kg | 14 mL/min/kg | 3.5 h | 488 ng·h/mL | 1240 ng·h/mL | 2.91 L/kg | Active | 30 mL/min/kg | 20.8 mL/min/kg | 0.038 µM | 7040 | 17.7 mL/min/kg | 3.58 h | 10% | 0.048 | 6.07 µL/min | 
